According to US8394786B2, “Quinazoline derivatives” (Janssen Pharmaceutica N.V., priority 2003, dated 2013):

Tests used:
[1] = system: SKOV3 cells; test: Serum starved proliferation assay on the ovarian carcinoma SKOV3 cells (C3); assay type: cell-based; conditions: EGF stimulated (100 ng/ml, 72 hours, serum free) or 72 hours with compounds, MTT cell viability assay; for IC50: Homo sapiens, SK-OV-3, 72 h, read-out: SKOV3 cell (C3): pIC50 (converted)
Protocol: The ovarian carcinoma cell line (SKOV3) was used in an epidermal growth factor stimulated cell proliferation assay, to assess the inhibitory effect of the compounds on EGF in whole cells.
In a first step the SKOV3 cells were incubated for 24 hours in the presence of 10% FCS serum. In the second step the cells were incubated with the compounds to be tested in a serum free condition (37° C. and 5% (v/v) CO2) and subsequently stimulated for 72 hours with EGF at a final concentration of 100 ng/ml. The effect of the compounds on the EGF stimulation was finally assessed in a standard MTT cell viability assay.
Alternatively, the SKOV3 cells were incubated for 24 hours in the presence of 10% FCS serum. In the second step the cells were incubated for 72 hours with the compounds to be tested and the effect of the compounds on cell proliferation was finally assessed in a standard MTT cell viability assay.

[2] = molecular target: EGFR (Homo sapiens, UniProt P00533); test: In vitro inhibition of EGFR, Flash Plate or glass-fiber filter technology (C2); assay type: biochemical; design: 0.5 μg EGFR-kinase domain/well; conditions: EGFR-kinase domain, 5.0 μM unlabeled ATP; for IC50: read-out: Kinase activity.(C2): pIC50 (converted)
Protocol: The in vitro inhibition of EGFR was assessed using either the Flash Plate technology or the glass-fiber filter technology as described by Davies, S. P. et al., Biochem J. (2000), 351; p. 95-105. The Flash Plate technology is generally described by B. A. Brown et al. in High Throughput Screening (1997), p. 317-328. Editor(s): Devlin, John P. Publisher: Dekker, New York, N.Y.
In the Flash Plate EGFR kinase reaction assay, a kinase substrate consisting of biotinylated poly(L-glutamic acid-L-tyrosine) (poly(GT)biotin), is incubated with the aforementioned protein in the presence of (^33P) radiolabeled ATP. (^33P) phosphorylation of the substrate is subsequently measured as light energy emitted using a streptavidin-coated Flash Plate (PerkinElmer Life Sciences) by trapping and quantifying the binding of the biotin tagged and radiolabeled substrate.
The EGFR kinase reaction is performed at 30° C. for 60 minutes in a 96-well microtiter FlashPlate (PerkinElmer Life Sciences). For each of the tested compounds a full dose response 1·10^−6M to 1·10^−10M has been performed. IRESSA° and Tarceva™ (erlotinib) were used as reference compounds. The 100 μl reaction volume contains 54.5 mM TrisHCl pH 8.0, 10 mM MgCl2, 100 μM Na3VO4, 5.0 μM unlabeled ATP, 1 mM DTT, 0.009% BSA, 0.8 μCi AT^33P, 0.35 μg/well poly(GT)biotin and 0.5 μg EGFR-kinase domain/well.
The reaction is stopped by aspirating the reaction mixture and washing the plate 3× with 200 μl wash/stop buffer (PBS+100 mM EDTA). After the final wash step 200 μl of wash/stop buffer was added to each well and the amount of phosphorylated (^33P) Poly(GT)biotin determined by counting (30 sec/well) in a microtiterplate scintillation counter.
In the glass-fiber filter technology EGFR kinase reaction assay, a kinase substrate consisting of poly(L-glutamic acid-L-tyrosine) (poly(GT)), is incubated with the aforementioned protein in the presence of (^33P) radiolabeled ATP. (^33P) Phosporylation of the substrate is subsequently measured as radioactivity bound on a glassfiber-filter.
The EGFR kinase reaction is performed at 25° C. for 10 minutes in a 96-well microtiterplate. For each of the tested compounds a full dose response 1·10^−6M to 1·10^−10M has been performed. IRESSA° and Tarceva™ (erlotinib) were used as reference compounds. The 25 μl reaction volume contains 60 mM TrisHCl pH 7.5, 3 mM MgCl2, 3 mM Mn Cl2, 3 μM Na3VO4, 50 μg/ml PEG20000, 5.0 μM unlabeled ATP, 1 mM DTT, 0.1 μCi AT^33P, 62.5 ng/well poly(GT) and 0.5 μg EGFR-kinase domain/well.
The reaction is stopped by adding 5 μl of a 3% phosphoric acid solution. 10 μl of the reaction mixture is then spotted onto a Filtermat A filter (Wallac) and washed 3 times for 5 min. in 75 mM phosphoric acid and 1 time for 5 min. in methanol prior to drying and quantification on the Typhoon (Amersham) using a LE phosphorage storage screen.

Molecule	IC50 [1]	IC50 [2]	SKOV3 cell (C3): pIC50 [1]	Kinase activity.(C2): pIC50 [2]
COc1cc2ncnc3c2cc1OCC(=O)NCC(=O)NCCc1ccc(Cl)cc1N3 [Compound 160, 4,6-ethanediylidene-8H-pyrimido[4,5-b][6,1,9,12]benzoxatriazacyclohexadecine-9,12-dione, 18-chloro-10,11,13,14,15,20-hexahydro-21-methoxy-]	631 nM	63.1 nM		
COc1cc2ncnc3c2cc1OCCN(C(=O)CNC(CO)CO)CC(=O)NCCCc1ccc(Cl)cc1N3 [Compound 44, 4,6-ethanediylidenepyrimido[4,5-b][6,1,9,12]benzoxatriazacycloheptadecin-12(13H)-one, 19-chloro-8,9,10,11,14,15,16,21-octahydro-10-[[[2-hydroxy-1-(hydroxymethyl)ethyl]amino]acetyl]-22-methoxy-]	7940 nM	631 nM		
COc1cc2ncnc3c2cc1OCC(=O)NC(CO)C(=O)NCCc1ccc(Cl)cc1N3 (stereo not drawn) [Compound 148, 4,6-ethanediylidene-8H-pyrimido[4,5-b][6,1,9,12]benzoxatriazacyclohexadecine-9,12-dione, 18-chloro-10,11,13,14,15,20-hexahydro-11-(hydroxymethyl)-21-methoxy-]	10000 nM	251 nM		
COc1cc2ncnc3c2cc1OCC(=O)N(C)CC(=O)NCCc1ccc(Cl)cc1N3 [Compound 164, 4,6-ethanediylidene-8H-pyrimido[4,5-b][6,1,9,12]benzoxatriazacyclohexadecine-9,12-dione, 18-chloro-10,11,13,14,15,20-hexahydro-21-methoxy-10-methyl-]	158 nM	501 nM		
CCC(C)C1NC(=O)CCCOc2cc3c(ncnc3cc2OC)Nc2cc(Cl)ccc2CNC1=O (stereo not drawn) [Compound 128, 4,6-ethanediylidenepyrimido[4,5-b][6,1,11,14]benzoxatriazacycloheptadecine-11,14(8H,15H)-dione, 19-chloro-9,10,12,13,16,21-hexahydro-22-methoxy-13-(1-methylpropyl)-]	200 nM	10 nM		
COc1cc2ncnc3c2cc1OCC(=O)NC(C(C)O)C(=O)NCc1ccc(Cl)cc1N3 (stereo not drawn) [Compound 127, 4,6-ethanediylidenepyrimido[4,5-b][6,1,9,12]benzoxatriazacyclopentadecine-9,12(8H,13H)-dione, 17-chloro-10,11,14,19-tetrahydro-11-(1-hydroxyethyl)-20-methoxy-]	1580 nM	251 nM		
COc1cc2ncnc3c2cc1OCCCC(=O)NC(C)(C)C(=O)NCc1ccc(Cl)cc1N3 [Compound 144, 4,6-ethanediylidenepyrimido[4,5-b][6,1,11,14]benzoxatriazacycloheptadecine-11,14(8H,15H)-dione, 19-chloro-9,10,12,13,16,21-hexahydro-22-methoxy-13,13-dimethyl-]	126 nM	158 nM		
COc1cc2ncnc3c2cc1OCCCC(=O)NCCC(=O)NCc1ccc(Cl)cc1N3 [Compound 155, 4,6-etheno-8H-pyrimido[4,5-b][6,1,11,15]benzoxatriazacyclooctadecine-11,15(12H,16H)-dione, 20-chloro-9,10,13,14,17,22-hexahydro-23-methoxy-]	1000 nM	316 nM		
COc1cc2ncnc3c2cc1OCC(=O)N1CCCC1C(=O)NCc1ccccc1N3 (stereo not drawn) [Compound 125, 9,11-ethanediylidenepyrimido[4,5-b]pyrrolo[1,2-i][6,1,9,12]benzoxatriazacyclopentadecine-14,19(5H,13H)-dione, 16,17,18,18a,20,21-hexahydro-22-methoxy-]	10000 nM	7940 nM		
COCCNCC(=O)N1CCOc2cc3c(ncnc3cc2OC)Nc2cc(Cl)ccc2CCCNC(=O)C1 [Compound 48, 4,6-ethanediylidenepyrimido[4,5-b][6,1,9,12]benzoxatriazacycloheptadecin-12(13H)-one, 19-chloro-8,9,10,11,14,15,16,21-octahydro-22-methoxy-10-[[(2-methoxyethyl)amino]acetyl]-]	1580 nM	316 nM		
COc1cc2ncnc3c2cc1OCC(=O)NCCC(=O)NCc1ccc(Cl)cc1N3 [Compound 152, 4,6-etheno-8H-pyrimido[4,5-b][6,1,9,13]benzoxatriazacyclohexadecine-9,13(10H,14H)-dione, 18-chloro-11,12,15,20-tetrahydro-21-methoxy-]	10000 nM	31.6 nM		
COc1cc2ncnc3c2cc1OCCCCC(=O)NC(C)(C)C(=O)NCc1ccc(Cl)cc1N3 [Compound 137, 4,6-ethanediylidene-8H-pyrimido[4,5-b][6,1,12,15]benzoxatriazacyclooctadecine-12,15(16H)-dione, 20-chloro-9,10,11,13,14,17,22-heptahydro-23-methoxy-14,14-dimethyl-]	251 nM	251 nM		
COc1cc2ncnc3c2cc1OCCN(C(=O)CN1CCOCC1)CC(=O)NCCCc1ccc(Cl)cc1N3 [Compound 50, 4,6-ethanediylidenepyrimido[4,5-b][6,1,9,12]benzoxatriazacycloheptadecin-12(13H)-one, 19-chloro-8,9,10,11,14,15,16,21-octahydro-22-methoxy-10-(4-morpholinylacetyl)-]	158 nM	79.4 nM		
COc1cc2ncnc3c2cc1OCCCC(=O)NC(CC(C)C)C(=O)NCc1ccc(Cl)cc1N3 (stereo not drawn) [Compound 143, 4,6-ethanediylidenepyrimido[4,5-b][6,1,11,14]benzoxatriazacycloheptadecine-11,14(8H,15H)-dione, 19-chloro-9,10,12,13,16,21-hexahydro-22-methoxy-13-(2-methylpropyl)-]	200 nM	501 nM		
4,6-ethenopyrimido[4,5-b][6,1,9,14]benzoxatriazacycloheptadecine-9,14(8H,15H)-dione, 19-chloro-10,11,12,13,16,21-hexahydro-22-methoxy- [Compound 150]			5.1	7.7
COc1cc2ncnc3c2cc1OCCCC=CCCCC(=O)NCc1ccc(Cl)cc1N3 [Compound 105, 4,6-ethanediylidenepyrimido[4,5-b][6,1,16]benzoxadiazacyclononadecin-16(17H)-one, 21-chloro-8,9,10,13,14,15,18,23-octahydro-24-methoxy-]		158 nM	7.6	
COc1cc2ncnc3c2cc1OCC1CCCN(CC(=O)NCCCc2ccc(Cl)cc2N3)C1 (stereo not drawn) [Compound 56, 14H-4,6-ethanediylidene-9,13-methano-8H-pyrimido[4,5-b][6,1,12,15]benzoxatriazacycloeicosin-15(16H)-one, 22-chloro-9,10,11,12,17,18,19,24-octahydro-26-methoxy-]	10000 nM	1580 nM		
COc1cc2ncnc3c2cc1OCCCCNC(=O)CNCc1ccc(Cl)cc1N3 [Compound 101, 4,6-ethanediylidenepyrimido[4,5-b][6,1,11,14]benzoxatriazacycloheptadecin-13(8H)-one, 19-chloro-9,10,11,12,14,15,16,21-octahydro-22-methoxy-]	31.6 nM	251 nM		
